Marks after values point to notes of the source that are not given here.
Tests used:
[1] = system: caspase-3; test: Example 2 immunohistochemistry: caspase-3-immunoreactive cells; assay type: in vivo, Sprague-Dawley (SD) rats; conditions: for Numbers of neurons: Caspase-3+: 1 mg/kg s.c. once a day for 14 days, 29 days after neuron apoptosis
Procedure: (§1) The induction of neuron apoptosis was carried out by damaging the right hemisphere of the brain of animals. Specifically, animals were anesthetized with 2 or 3% isoflurane in the mixture of 70% N2O and 28.5% O2, and were maintained with 1 to 1.5% isoflurane in the mixture of 70% N2O and 28.5% O2. After that the temporalis muscle was bisected and reflected through an incision made midway between the eye and the eardrum canal. The proximal MCA was exposed through a subtemporal craniectomy by microdental drills without removing the zygomatic arch and without transecting the facial nerve. […] Mortality was less than 5%. For sham control, all procedures were performed in the same way, with the exception of the occlusion of the MCA.
After deparaffinized of prepared […] histological paraffin sections, citrate buffer antigen (epitope) retrieval pretreatment were conducted as previously (Shi S R et al., J Histochem Cytochem. 41:1599-604(1993)). Briefly, pre-heat water bath with staining dish containing 10 mM citrate buffers (pH 6.0) until temperature reaches 95-100° C. Immerse slides in the staining dish and place the lid loosely on the staining dish. Incubate for 20 minutes and turn off the water bath. Place the staining dish at room temperature and allow the slides to cool for 20 minutes. After epitope retrievals, sections were immunostained using avidin-biotin complex (ABC) methods for caspase-3 and PARP. Endogenous peroxidase activity was blocked by incubated in methanol and 0.3% H2O2 for 30 minutes, and non-specific binding of immunoglobulin was blocked with normal horse serum blocking solution (Vector Lab., Burlingame, Calif., USA. Dilution 1:100) for 1 hr in humidity chamber. Primary antiserum were treated for overnight at 4° C. in humidity chamber, and then incubated with biotinylated universal secondary antibody (Vector Lab., Dilution 1:50) and ABC reagents (Vectastain Elite ABC Kit, Vector Lab., Dilution 1:50) for 1 hr at room temperature in humidity chamber. Finally, reacted with peroxidae substrate kit (Vector Lab.) for 3 min at room temperature. All sections were rinse in 0.01M PBS for 3 times, between steps. The neurons occupied by over 10% of immunoreactivities, the density, of each antiserum for caspase-3 and PARP were regarded as positive, and the mean numbers of caspase-3 and PARPimmunoreactive cells dispersed in the mm^2 of ipsilateral peri-infarct/defect cerebral cortex were counted using an automated image analysis process as establish methods (Lee et al., 2010; Song et al., 2012), respectively. The histopathologist was blinded to the group distribution when performing the analysis.
All data were expressed as mean±standard deviation (S.D.) of ten rats. Multiple comparison tests for different dose groups were conducted. Variance homogeneity was examined using the Levene test (Levene A, Clin Otalary, 1981; 6:145-51). […] Statistical analyses were conducted using SPSS for Windows (Release 14K, SPSS Inc., USA; Ludbrook, Clin Exp Pharmacol Physiol, 1997; 24:294-6). In addition, the percent changes as compared with neuron apoptosis control and mirodenafil treated rats were calculated to help the understanding of the efficacy of test substances as follow Equation 6 and 7. Percentage Changes as Compared with Sham Control (%)=[((Data of neuron apoptosis control−Data of sham control rat)/Data of sham control rats)×100] [EQUATION 6] Percentage Changes as Compared with neuron apoptosis Control (%)=[((Data of test material treated rats−Data of neuron apoptosis control rats)/Data of neuron apoptosis control rats)×100] [EQUATION 7]

[2] = system: neuron apoptosis-operated rats, ipsilateral cerebral cortex; test: Example 2 (timing of administration) histopathology: cerebral atrophy and degenerative neurons; assay type: in vivo, Sprague-Dawley (SD) rats; conditions: for Cerebral atrophic % / Numbers of neurons: Degenerative cells: 1 mg/kg s.c. once a day for 14 days, 29 days after neuron apoptosis
Procedure: Total one hundred healthy male Sprague-Dawley (SD) rats (6-wk old upon receipt; Japan; Body weight ranged in 170-190 g upon receipt) were used after acclimatization for 16 days. Animals were allocated four per polycarbonate cage in a temperature (20-25° C.) and humidity (50-55%) controlled room. Light:dark cycle was 12 hr:12 hr, and standard rodent chow (Samyang, Korea) and water were supplied free to access. All animals were treated in accordance with the Guidelines for Care and Use of Laboratory Animals of Daegu Haany University based on the Guide for the Care and Use of Laboratory Animals by Institute of Laboratory Animal Resources, Commission on Life Science, National Research Council, USA on 1996, Washington D.C. Experimental groups are as follows:
The mirodenafil (mirodenafil 2HCl; SK Chemical Life Science Business, KR) was used in this experiment. […] Mirodenafil was stored at 4° C. in a refrigerator to protect from light and humidity until used. Mirodenafil were directly dissolved in saline as 1 mg/ml concentrations, and subcutaneously administered in a volume of 1 ml/kg on the dorsal back skins from 24, 72 and 168 hrs after neuron apoptosis, once a day for 14 days, respectively. In saline and neuron apoptosis control rats, equal volumes of saline as vehicle were administered, instead of mirodenafil from 24 hrs after neuron apoptosis for 20 days, respectively.
as §1
At 29 days after neuron apoptosis, rats were sacrificed under deep anesthesia with 3% isoflurane inhalation. Brains were removed, washed in chilled phosphate buffered saline (PBS, pH7.4), and dissected into 6 coronal sections (2 mm thickness) ranging from 2 to 14 mm from the frontal brain pole on the rat brain stainless steel coronal matrix (Harvard, USA). Prepared last 6th cerebral parts were directly fixed in 10% neural buffered formalin. Then, embedded in paraffin, cross-sectioned, and stained with hematoxylin and eosin (H&E) for observing general histopathology of cerebral cortex. […] The histopathologist was blindes to group distribution when this analysis was made.
Histomorphometry: The atrophic % of ipsilateral cerebral cortex was calculated as following Equation 4 as compared with intact contralateral hemisphere in prepared peri-infarct/defect histological specimens. In addition, the numbers of degenerative neurons were also measured in the restricted view fields of cerebral cortex, mm2, respectively. Cerebral atrophy formation=(Contralateral cerebral cortex area−ipsilateral cerebral cortex area)/Contralateral cerebral cortex area×100(%) [EQUATION 4]
All data were expressed as mean±standard deviation (S.D.) of ten rats. Multiple comparison tests for different dose groups were conducted. Variance homogeneity was examined using the Levene test (Levene A, Clin Otalary, 1981; 6:145-51). […] Statistical analyses were conducted using SPSS for Windows (Release 14K, SPSS Inc., USA; Ludbrook, Clin Exp Pharmacol Physiol, 1997; 24:294-6). In addition, the percent changes as compared with neuron apoptosis control and mirodenafil treated rats were calculated to help the understanding of the efficacy of test substances as follow Equation 6 and 7. […]

[3] = 1 mg/kg from 24 hrs after surgery
[4] = 1 mg/kg from 72 hrs after surgery
[5] = 1 mg/kg from 168 hrs after surgery

**Q.** Which “numbers of caspase-3-immunoreactive neurons at 29 days, change as compared with neuron apoptosis control” value [1, 3] does the source give for `CCCOc1ccc(S(=O)(=O)N2CCN(CCO)CC2)cc1-c1nc2c(CCC)cn(CC)c2c(=O)[nH]1` [Mirodenafil, mirodenafil] here?
**A.** The value was −57.29%.

**Q.** And the “numbers of caspase-3-immunoreactive neurons at 29 days, change as compared with neuron apoptosis control” value [1, 4]?
**A.** The value was −40.63%.

**Q.** What about the “numbers of caspase-3-immunoreactive neurons at 29 days, change as compared with neuron apoptosis control” value [1, 5] of the same compound?
**A.** Its value is −15.57%.

**Q.** What about the “Numbers of neurons: Caspase-3+” value ([1]; start 24 hrs after operation) of the same compound?
**A.** The value was 30.01 ± 4.90^ab cells/mm^2 of cerebral cortex.

**Q.** What about the “Numbers of neurons: Caspase-3+” value ([1]; start 72 hrs after operation) of the same compound?
**A.** The value was 41.71 ± 6.34^ab cells/mm^2 of cerebral cortex.

**Q.** What about the “Numbers of neurons: Caspase-3+” value ([1]; start 168 hrs after operation) of the same compound?
**A.** The value was 59.33 ± 5.13^a cells/mm^2 of cerebral cortex.

**Q.** What about the “ipsilateral cerebral atrophic % at 29 days, change as compared with neuron apoptosis control” value [2, 3] of the same compound?
**A.** Its value is −60.71%.

**Q.** What about the “numbers of degenerative neurons at sacrifice, change as compared with neuron apoptosis control” value [2, 3] of the same compound?
**A.** Its value is −70.64%.

**Q.** And the “ipsilateral cerebral atrophic % at 29 days, change as compared with neuron apoptosis control” value [2, 4]?
**A.** The value was −26.37%.

**Q.** And the “numbers of degenerative neurons at sacrifice, change as compared with neuron apoptosis control” value [2, 4]?
**A.** The value was −45.90%.

**Q.** And the “ipsilateral cerebral atrophic % at 29 days, change as compared with neuron apoptosis control” value [2, 5]?
**A.** Its value is −12.31%.

**Q.** And the “numbers of degenerative neurons at sacrifice, change as compared with neuron apoptosis control” value [2, 5]?
**A.** The value was −15.40%.

**Q.** What about the Cerebral atrophic % ([2]; start 24 hrs after operation) of the same compound?
**A.** The Cerebral atrophic % was 21.90 ± 3.13^ab %.

**Q.** What about the “Numbers of neurons: Degenerative cells” value ([2]; start 24 hrs after operation) of the same compound?
**A.** The value was 22.80 ± 3.69^ab cells/mm^2 of cerebral cortex.

**Q.** And the Cerebral atrophic % ([2]; start 72 hrs after operation)?
**A.** Its Cerebral atrophic % is 41.03 ± 5.05^ab %.

**Q.** What about the “Numbers of neurons: Degenerative cells” value ([2]; start 72 hrs after operation) of the same compound?
**A.** Its value is 42.01 ± 6.14^ab cells/mm^2 of cerebral cortex.

**Q.** And the Cerebral atrophic % ([2]; start 168 hrs after operation)?
**A.** The Cerebral atrophic % was 48.87 ± 3.25^ac %.

**Q.** What about the “Numbers of neurons: Degenerative cells” value ([2]; start 168 hrs after operation) of the same compound?
**A.** Its value is 65.70 ± 7.64^ac cells/mm^2 of cerebral cortex.

Reference: patent US10064865B2, “Composition comprising phosphodiesterase type 5 inhibitor for inhibiting apoptosis of nerve cells” (ARIBIO INC., priority 2012, dated 2018)
